The text below walks through data of patent US10011631B2, “Stapled helical peptides and methods of synthesis” (The University of Hong Kong, priority 2015, dated 2018).

This assay addresses MAGUK GK domain. Briefly: ITC binding to the MAGUK GK domain. Conditions: from ITC studies.

For the substance “Ala-Arg-Arg-S5-Glu-Tyr-Leu-S5-Ala-Ile-Gln [compound 1]”, the “binding affinity with the GK domain” value is “no binding affinity”.
